In patent US20250205244A1, “METHODS OF TREATING MIGRAINE WITH MNK INHIBITORS” (4E Therapeutics, Inc., priority 2021, published 2025):

Key:
WT mice, dural IL-6 = assay: Dural IL-6-induced acute facial hypersensitivity and grimace in mice; format: in vivo, mouse; settings: female and male WT mice; 10 mg/kg oral gavage prior to dural IL-6 (0.1 ng); compared to the vehicle group
Excerpt: Female and male MNK1 KO mice were a gift of the Sonenberg laboratory at McGill University and bred at the University of Texas at Dallas (UTD) to generate experimental animals (Ueda T, et al., MNK2 and MNK1 are essential for constitutive and inducible phosphorylation of eukaryotic initiation factor 4E but not for cell growth or development. Mol Cell Biol. August 2004). Genotype was confirmed at weaning using DNA from ear clips. Experimental C57BL6/J wild-type (WT) animals were obtained from an internally maintained C57BL/6 J colony at the University of Texas at Dallas. For pharmacological studies, female and male ICR (CD-1) mice aged 6-8 weeks (˜25-30 g) were outbred and purchased from Envigo. All mice were housed in groups of four animals per cage on a 12-hour light-dark cycle and had access to food and water ad libitum. Upon arrival to the animal care facility, animals were allowed a minimum of 72 hours to acclimate to their new environment before being handled for experiments. All experiments were performed between the hours of 9:00 AM and 5:00 PM. All procedures were conducted with prior approval of the Institutional Animal Care and Use Committee at the University of Texas at Dallas.
For dural injections, human recombinant interleukin-6 (IL-6) protein (R&D Systems) stock solution ([…]) was prepared in sterile 0.1% BSA and diluted to 1 ng/ml in synthetic interstitial fluid (SIF) consisting of 135 mM NaCl, 5 mM KCl, 10 mM HEPES, 2 mM CaCl2), 10 mM glucose, 1 mM MgCl2 (pH 7.4, 310 mOsm). Sodium nitroprusside (SNP) (Sigma-Aldrich) was prepared fresh in sterile phosphate buffered saline (PBS) at the time of use and was kept away from light. To test for the presence of hyperalgesic priming, mice were given a 150 μL IP injection of 0.1 mg/kg of SNP or a 5 μL dural injection of SIF solution that was brought to a pH of 7.0, as previously described (Avona A., et al., Repetitive stress in mice causes migraine-like behaviors and CGRP-dependent hyperalgesic priming to a migraine trigger. Pain. (2020); Burgos-Vega C. C. et al., Non-invasive dural stimulation in mice: A novel preclinical model of migraine. Cephalalgia. (2019)). […] MNK inhibitors were given orally to WT mice at 10 mg/kg approximately 1 hr prior to dural IL-6 or dural pH 7.0.
Mouse dural injections were performed as previously described (Burgos-Vega C. C. et al., Non-invasive dural stimulation in mice: A novel preclinical model of migraine. Cephalalgia. (2019)). Mice were anesthetized under isoflurane for <2 min with <2.5-3% isoflurane via a chamber and given a 5 μL injection via a modified internal cannula (Invivo1, part #8IC313ISPCXC, Internal Cannula, standard, 28 gauge, fit to 0.5 mm). […]

[1] = target: recombinant human kinase, MNK2 (Homo sapiens, UniProt Q9HBH9); assay: MNK2 substrate phosphorylation assay; format: biochemical
Chain of recombinant human kinase, MNK2 (Q9HBH9 whole entry): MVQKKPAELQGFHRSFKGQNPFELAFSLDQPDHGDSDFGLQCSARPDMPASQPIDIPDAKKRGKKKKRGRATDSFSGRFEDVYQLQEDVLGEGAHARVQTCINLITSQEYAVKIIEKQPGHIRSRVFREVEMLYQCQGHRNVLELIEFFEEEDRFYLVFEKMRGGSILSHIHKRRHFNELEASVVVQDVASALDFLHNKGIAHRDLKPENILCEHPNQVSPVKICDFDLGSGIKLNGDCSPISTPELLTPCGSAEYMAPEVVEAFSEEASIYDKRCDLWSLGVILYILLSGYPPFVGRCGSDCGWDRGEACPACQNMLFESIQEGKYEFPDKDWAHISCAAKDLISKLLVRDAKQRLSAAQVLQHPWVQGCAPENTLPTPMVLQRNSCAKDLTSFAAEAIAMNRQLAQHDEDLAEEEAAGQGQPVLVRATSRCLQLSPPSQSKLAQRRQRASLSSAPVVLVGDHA

[2] = target: recombinant human kinase, MNK1 (Homo sapiens, UniProt Q9BUB5); assay: MNK1 substrate phosphorylation assay; format: biochemical
Chain of recombinant human kinase, MNK1 (Q9BUB5 whole entry): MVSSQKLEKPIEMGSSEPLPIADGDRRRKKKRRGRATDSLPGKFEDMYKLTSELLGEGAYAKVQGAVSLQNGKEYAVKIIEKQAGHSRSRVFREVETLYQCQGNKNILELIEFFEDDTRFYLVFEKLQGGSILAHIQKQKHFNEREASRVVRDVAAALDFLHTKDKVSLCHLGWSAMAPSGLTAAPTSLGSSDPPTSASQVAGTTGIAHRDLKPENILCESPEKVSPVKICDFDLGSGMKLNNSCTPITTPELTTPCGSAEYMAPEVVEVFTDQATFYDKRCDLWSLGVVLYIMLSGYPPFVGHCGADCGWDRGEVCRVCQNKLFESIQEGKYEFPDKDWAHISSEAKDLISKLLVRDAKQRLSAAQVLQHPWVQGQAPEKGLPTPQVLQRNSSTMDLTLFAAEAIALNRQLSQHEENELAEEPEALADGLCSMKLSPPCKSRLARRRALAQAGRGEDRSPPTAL

[3] = test system: eIF4E phosphorylation at Serine 209 in the human embryonic kidney (HEK) 293 cell line; assay: Inhibition of eIF4E phosphorylation in HEK293 cells (phospho-specific antibody, fluorescent plate reader); format: cell-based; settings: HEK293, 2 h, eIF4E phosphorylation at Serine 209, HEK293 cells, 2 hours exposure
Procedure: The ability of MNK inhibitors described herein to inhibit eIF4E phosphorylation at Serine 209 in the human embryonic kidney (HEK) 293 cell line was tested by exposing the cells to compound for 2 hours and then measuring eIF4E phosphorylation with a phosphorylation-specific antibody in a fluorescent plate reader. These experiments were done with HEK-293 cells plated on 96 well plates. Following treatment, cells were fixed with ice cold methanol for 10 min and then washed in 1× phosphate buffered saline (PBS) and the permeabilized with 0.02% Triton X-100 in 10% normal goat serum made up in PBS. Primary antibody was applied overnight at a concentration dilution of 1:2000 (p-eIF4E antibody from Cell Signaling ab76256). Following washing, cells were then exposed to secondary antibody conjugated to alexa-fluor 488 and then visualized on a Syngergy HTX plate reader. Fluorescence for p-eIF4E was measured and normalized to total DAPI fluorescence to determine the percentage of eIF4E phosphorylation in each well. Data were plotted in Graphpad Prism V8 to determine concentration-response effects and calculate IC50 values.

[4] = test system: WT mice, dural pH 7.0 after dural IL-6; assay: Hyperalgesic priming to dural pH 7.0 after dural IL-6 in mice; format: in vivo, mouse; settings: female and male WT mice
Excerpt: Female and male MNK1 KO mice were a gift of the Sonenberg laboratory at McGill University and bred at the University of Texas at Dallas (UTD) to generate experimental animals (Ueda T, et al., MNK2 and MNK1 are essential for constitutive and inducible phosphorylation of eukaryotic initiation factor 4E but not for cell growth or development. Mol Cell Biol. August 2004). Genotype was confirmed at weaning using DNA from ear clips. Experimental C57BL6/J wild-type (WT) animals were obtained from an internally maintained C57BL/6 J colony at the University of Texas at Dallas. For pharmacological studies, female and male ICR (CD-1) mice aged 6-8 weeks (˜25-30 g) were outbred and purchased from Envigo. All mice were housed in groups of four animals per cage on a 12-hour light-dark cycle and had access to food and water ad libitum. Upon arrival to the animal care facility, animals were allowed a minimum of 72 hours to acclimate to their new environment before being handled for experiments. All experiments were performed between the hours of 9:00 AM and 5:00 PM. All procedures were conducted with prior approval of the Institutional Animal Care and Use Committee at the University of Texas at Dallas. […]

SMILES | dural IL-6 induced facial grimace measures (grimace score) (WT mice, dural IL-6) | IC50 [1] [nM] | IC50 [2] [nM] | IC50 [3] [nM] | dural IL-6 induced facial hypersensitivity (periorbital von Frey) (WT mice, dural IL-6) | hyperalgesic priming to dural pH 7.0 ([4]; 10 mg/kg oral gavage prior to dural IL-6, later tested with dural SIF pH 7.0) | hyperalgesic priming to dural pH 7.0 ([4]; 10 mg/kg oral gavage prior to dural pH 7.0, compared to the vehicle group)
Cc1cc(Nc2cc(N)ncn2)c(=O)n2c1C(=O)NC21CCCC2(CC2)CC1 (racemic) [rac-4ET-01-027, 6″-((6-aminopyrimidin-4-yl)amino)-8″-methyl-2″H-dispiro[cyclopropane-1,1′-CYCLOHEPTANE-4′,3″-imidazo[1,5-a]pyridine]-1″,5″-dione] | significantly attenuated | – | – | – | – | – | –
Cc1cc(Nc2cc(N)ncn2)c(=O)n2c1C(=O)NC21CCC2(CCC2)C1 (stereo not drawn) [4ET-01-015] | – | 2.6 | 30.9 | 3.9 | – | – | –
Nc1cc(Nc2cc(Cl)c3n(c2=O)C2(CCC4(CC4)CC2)NC3=O)ncn1 [4ET-04-023] | significantly attenuated | 1.86 | 36.8 | 1.2 | – | – | –
Cc1cc(Nc2cc(N)ncn2)c(=O)n2c1C(=O)NC21CCCCC1 [eFT508, reference compound] | significantly attenuated | – | – | – | significantly attenuated | did not prime to dural pH 7.0 | did not prime to pH 7.0
